Data: US20080105961A1, “Ligands of the Molecule Fit (Agt-121) and their Pharmaceutical Use” (priority 2004, published 2008)
Marks after values point to notes of the source that are not given here.

Legend:
[1] = system: melanocortin receptor; assay: Feeding response to ICV injection of SHU9119 after three days of ODN or saline infusion; assay type: in vivo, Sprague Dawley rats; settings: mean ± SEM
Text: To further analyse the link between FIT and the melanocortin system, the feeding response of Sprague Dawley rats to an ICV injection of SHU9119, a melanocortin receptor antagonist and known feeding stimulator was investigated. After three days of FIT antisense treatment, jumbled oligonucleotide or saline infusion, responses were compared to rats receiving an ICV injection of saline vehicle rather than SHU9119.

[2] = system: FIT mRNA; assay: Pair-feeding study with indirect calorimetry (24 h): body weight, food intake, total energy expenditure; assay type: in vivo, Sprague Dawley rats; settings: mean ± SEM; for Day 0 BW: baseline
Experimental: To investigate the mechanism of weight loss after FIT antisense treatment, a group of Sprague Dawley rats were pair fed to the average daily food intake levels of FIT antisense-treated rats, and indirect calorimetry (24 h) was performed before and after FIT antisense or jumbled ODN ICV infusion.
Total energy expenditure (TEE) was calculated from measurements of oxygen consumption and carbon dioxide production using indirect calorimetry (Ferrannini, 1988). Due to differences in body weight between the three groups of rats, TEE levels were calculated relative to whole body mass of the animals. […] FIT antisense-treated rats therefore have an inappropriately high level of energy expenditure for their body weight.

[3] = molecular target: T1, MC4R (Rattus norvegicus, UniProt P70596); assay: Feeding response to MT II after ODN or saline infusion; assay type: in vivo, Sprague Dawley rats; settings: for Δ FI: 24 hr food intake post minus pre injection; for Δ FI / 24 hr FI post injection / 24 hr FI pre injection: mean ± SEM; for 24 hr FI post injection: food intake after MT II or vehicle injection; for 24 hr FI pre injection: food intake, during ICV infusion, before MT II or vehicle injection
T1 construct: from tissue; host or cells: living Sprague Dawley rats (brain)
T1 sequence (P70596 whole entry, the tested form may be a part): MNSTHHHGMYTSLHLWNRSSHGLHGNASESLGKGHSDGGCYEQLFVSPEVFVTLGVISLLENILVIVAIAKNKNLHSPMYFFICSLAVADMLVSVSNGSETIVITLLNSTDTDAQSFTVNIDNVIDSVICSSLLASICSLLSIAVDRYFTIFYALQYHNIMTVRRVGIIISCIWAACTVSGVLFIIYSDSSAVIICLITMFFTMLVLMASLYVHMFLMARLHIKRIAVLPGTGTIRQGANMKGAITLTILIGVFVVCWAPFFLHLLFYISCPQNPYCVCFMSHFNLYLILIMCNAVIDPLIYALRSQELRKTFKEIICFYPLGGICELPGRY
Experimental: To further investigate this relationship, antisense suppression of FIT in Sprague Dawley rats was again performed and these animals' responses to administration of the α-MSH analog MT II, a synthetic agonist of the MC4R and known suppressor of feeding. MT II effects on food intake and body weight in saline and jumbled ODN-treated control rats, as well as in FIT antisense-treated rats was measured.

[4] = system: FIT mRNA; assay: ICV infusion of FIT antisense ODN in Psammomys obesus: food intake and body weight; assay type: in vivo
Experimental: To further investigate the orexigenic properties of FIT intracerebroventricular (ICV) antisense suppression of FIT was performed. This involved the infusion of FIT antisense oligonucleotides (ODNs) directly into the lateral ventricle space of the brain to suppress endogenous FIT mRNA levels. The effects of this treatment on food intake and body weight were measured and compared to control animals infused with a jumbled sequence ODN, or saline alone. 18 week old, male, lean, normal glucose tolerant (nGT) P. obesus animals were utilised for this study and infused with either saline, FIT antisense ODN, or jumbled ODN at 24 μg/day for four days. The sequence of the FIT antisense ODN was 5′-mu*mg*mg*mc*ma*g*a*a*t*t*g*c*a*mu*mu*mc*mc*mu*-3′, and the jumbled ODN 5′-mc*mg*mc*ma*mc*t*t*a*g*c*t*a*c*mu*mu*mg*mc*mu-3′, where m indicates the presence of a 2′O-Methyl-modified base, and * indicates a phosphorothioate linkage.

[5] = system: FIT mRNA; assay: Hypothalamic FIT gene expression by semi-quantitative RT-PCR in ICV antisense-treated rats; assay type: in vivo, Sprague Dawley rats; settings: hypothalamus, ICV-treated Sprague Dawley rats, mean ± SEM
Experimental: To confirm endogenous suppression of FIT in antisense-treated Sprague Dawley rats, FIT mRNA in the hypothalamus of these animals was measured.

[6] = system: FIT mRNA; assay: Metabolic heat production by indirect calorimetry (FIG. 1); assay type: in vivo, Sprague Dawley rats; settings: pair fed, last half of dark phase and majority of light phase
Text: FIG. 1 is a graphical representation of metabolic heat production in Sprague Dawley rats after three days of FIT antisense-treatment compared to jumbled ad libitum fed and jumbled pair fed rats. *p<0.05 pair fed compared to jumbled group, #p<0.05 pair fed compared to FIT antisense-treated group, ̂p<0.05 compared to both jumbled and FIT antisense-treated groups. Data are mean ±SEM.
To further dissect the nature of the inability to reduce TEE levels after FIT antisense treatment, metabolic heat production was measured by indirect calorimetry.

[7] = system: FIT mRNA; assay: ICV infusion of FIT antisense ODN in Sprague Dawley rats: food intake and body weight; assay type: in vivo
Experimental: To confirm the appetite-suppressing and weight-reducing effects of central FIT suppression in an animal model other than P. obesus, the inventors performed the same experiments in Sprague Dawley rats. Male, 12 week old Sprague Dawley rats were infused with either saline, FIT antisense ODN, or jumbled ODN at 24 μg/day for four days. The sequence of the FIT antisense ODN and the jumbled ODN are the same as in Example 2 above.

[8] = system: MC3R and MC4R; settings: ICV infusion, mice (Murphy et al. 1998); cited from earlier work
[9] = molecular target: T2, SH3GL2; endophilin 1 (human, UniProt Q99962 1-352); assay: yeast two-hybrid screen of a human brain cDNA library (12 clones)
T2 construct: Prey clone from a human brain cDNA library; not shown: not specified
T2 sequence (Q99962 whole entry): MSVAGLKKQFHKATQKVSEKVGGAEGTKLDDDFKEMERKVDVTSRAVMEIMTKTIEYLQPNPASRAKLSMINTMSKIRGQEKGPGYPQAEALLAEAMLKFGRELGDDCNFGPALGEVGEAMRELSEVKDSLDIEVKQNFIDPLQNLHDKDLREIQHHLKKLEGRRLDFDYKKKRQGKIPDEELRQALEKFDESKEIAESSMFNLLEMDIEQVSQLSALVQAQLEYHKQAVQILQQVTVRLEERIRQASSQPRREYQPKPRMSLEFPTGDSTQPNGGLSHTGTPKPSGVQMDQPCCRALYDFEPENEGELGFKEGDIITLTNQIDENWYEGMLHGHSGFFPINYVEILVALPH
Text: (§1) The inventors utilised a yeast two-hybrid system which incorporates modifications by Chevray and Nathans (1992), and Vidal et al. (1996) to screen a human brain cDNA library.

[10] = molecular target: T2, SH3GL2; endophilin 1; assay: yeast two-hybrid screen of a human brain cDNA library (14 clones)
Text: as §1

[11] = system: FIT gene expression; assay: FIT gene expression in the hypothalamus of monogenic mouse models of obesity; assay type: in vivo; settings: leptin-treated ob/ob mice, mean ± SEM
Experimental: To investigate the molecular pathway via which FIT affect food intake, FIT gene expression was measured in the hypothalamus of several different monogenic mouse models of obesity. […] FIT gene expression was not altered in other genetic models of obesity such as leptin deficient ob/ob mice, MC3R knockout mice and MC4R knockout mice.

[12] = not pair fed (jumbled group ad libitum fed)
[13] = pair fed to food intake of FIT antisense-treated rats
[14] = ICV 24 μg/day, day 1, mean ± SEM
[15] = ICV 24 μg/day, day 2, mean ± SEM
[16] = ICV 24 μg/day, day 3, mean ± SEM
[17] = ICV 24 μg/day, day 4, mean ± SEM
[18] = baseline body weight, mean ± SEM
[19] = change compared to day 0, mean ± SEM

5′-mc*mg*mc*ma*mc*t*t*a*g*c*t*a*c*mu*mu*mg*mc*mu-3′ [Jumbled, reference compound]
Δ FI ([1]; 48 hr food intake post minus pre injection): 0.03 ± 0.02 g/g BW
48 hr FI post injection ([1]; food intake relative to body weight, after ICV SHU9119 or vehicle injection): 0.13 ± 0.01 g/g BW
48 hr FI pre injection ([1]; food intake relative to body weight, during ICV infusion, before SHU9119 or vehicle injection): 0.10 ± 0.01 g/g BW
Day 0 BW [2, 12]: 404 ± 31 g
Day 4 BW [2, 12]: 386 ± 24 g
Food Intake [2, 12]: 81.1 ± 10.3 g
Δ BW [2, 12]: -17.3 ± 8.9 g
Δ TEE ([2]; not pair fed): -21 ± 17 kJ/day/kg
Post TEE ([2]; not pair fed, total energy expenditure after ICV infusion): 492 ± 61 kJ/day/kg
Pre TEE ([2]; not pair fed, total energy expenditure before ICV infusion): 513 ± 62 kJ/day/kg
Day 0 BW [2, 13]: 357 ± 9 g
Day 4 BW [2, 13]: 317 ± 7^a g
Food Intake [2, 13]: 39.1 ± 3.2^a g
Δ BW [2, 13]: -39.7 ± 9.9 g
Post TEE ([2]; pair fed, after ICV infusion): 456 ± 30^c kJ/day/kg
Pre TEE ([2]; pair fed, before ICV infusion): 556 ± 59 kJ/day/kg
Δ TEE ([2]; pair fed): -100 ± 28 kJ/day/kg
Δ FI [3]: −0.02 ± 0.01 g/g BW
24 hr FI post injection [3]: 0.04 ± 0.01 g/g BW
24 hr FI pre injection [3]: 0.06 ± 0.01 g/g BW
Cumulative food intake, Day 1 Food [4, 14]: 8.9 ± 0.5^a g
Cumulative food intake, Day 2 Food [4, 15]: 17.3 ± 1.0^a g
Cumulative food intake, Day 3 Food [4, 16]: 27.3 ± 1.5^a g
Cumulative food intake, Day 4 Food [4, 17]: 38.7 ± 2.7 g
Day 1 BW ([4]; ICV 24 μg/day, mean ± SEM): 188 ± 9 g
Day 2 BW ([4]; ICV 24 μg/day, mean ± SEM): 188 ± 9 g
Day 3 BW ([4]; ICV 24 μg/day, mean ± SEM): 187 ± 9 g
Day 4 BW ([4]; ICV 24 μg/day, mean ± SEM): 187 ± 9 g
Day 0 BW [4, 18]: 191 ± 9 g
Day 1 ΔBW [4, 19]: -3.8 ± 0.7 g
Day 2 ΔBW [4, 19]: -3.3 ± 0.8 g
Day 3 ΔBW [4, 19]: -4.0 ± 1.6 g
Day 4 ΔBW [4, 19]: -3.5 ± 1.7 g
FIT gene expression [5]: 8.4 ± 0.6 arbitrary units
metabolic heat production compared to jumbled-treated ad libitum fed and FIT antisense-treated rats [6]: significantly reduced heat production
Cumulative food intake, Day 1 Food [7, 14]: 18.7 ± 2.4 g
Cumulative food intake, Day 2 Food [7, 15]: 44.7 ± 4.1 g
Cumulative food intake, Day 3 Food [7, 16]: 72.6 ± 5.1 g
Cumulative food intake, Day 4 Food [7, 17]: 101.5 ± 6.1 g
Day 1 BW ([7]; ICV 24 μg/day, mean ± SEM): 457 ± 24 g
Day 2 BW ([7]; ICV 24 μg/day, mean ± SEM): 468 ± 23 g
Day 3 BW ([7]; ICV 24 μg/day, mean ± SEM): 473 ± 23 g
Day 4 BW ([7]; ICV 24 μg/day, mean ± SEM): 477 ± 22 g
Day 0 BW [7, 18]: 465 ± 24 g
Day 1 ΔBW [7, 19]: -7.8 ± 3.6 g
Day 2 ΔBW [7, 19]: 3.5 ± 3.7 g
Day 3 ΔBW [7, 19]: 6.3 ± 3.5 g
Day 4 ΔBW [7, 19]: 12.0 ± 4.1 g

MT II
Δ FI [3]: −0.04 ± 0.01 g/g BW
24 hr FI post injection [3]: 0.03 ± 0.01^a g/g BW
24 hr FI pre injection [3]: 0.07 ± 0.01 g/g BW
inhibitory effect on food intake in rats pre-treated with FIT antisense ODN versus control groups ([3]; not statistically significantly different from control groups): tended to have a greater inhibitory effect
effect on food intake [8]: decrease food intake

B1: FIT-PR (FIT proline-rich region), yeast two-hybrid bait (other, not shown: small tags and cut ends)
chain: RPFPTGTPPPLPPKTVPATPPRTGSPLTVATGNDQAATEAKIEKPPSISDLDSIFGPVLSPKSVAVNTEETWVHFSDASPEHVTPELTPREKVVTPPAASDIPADSPTPGPPGPPGSAGPPGPPGPRNVPSPLNLEEVQKKVAEQTFIKDDYLETLSSPKECGLGQRATPPPPPPPTYRTVVSSPGPGSGSGTGTASGASSPARPATPLVPCSCSTPPPPPPRPPSRPKLPPGKPGVGDVSRPFSPPIHSSSPPPIAPL
notes: Truncated fragment of FIT used as bait in a yeast two-hybrid screen of a human brain cDNA library; also called AGT-121
binding result [9]: binds

B2: FIT-NP (FIT N-terminal plus proline-rich region), yeast two-hybrid bait (other, not shown: small tags and cut ends)
chain: MMEGLKKRTRKAFGIRKKEKDTDSTGSPDRDGMQPSPHELPYHSKAECAREGGKKASKKSNGAPNGFYAEIDWERYNSPELDEEGYSIRPEEPGSTKGKHFYSSSESEEEEESHKKFNIKIKPLQSKDILKNAATVDELKASIGNIALSPSPVRKSPRRSPGAIKRNLSSEEVARPRRSTPTPELTSKKPLDDTLALAPLFGPPLESAFDGHKTEVLLDQPEIWGSGQPVNPSMESPKLARPFPTGTPPPLPPKTVPATPPRTGSPLTVATGNDQAATEAKIEKPPSISDLDSIFGPVLSPKSVAVNTEETWVHFSDASPEHVTPELTPREKVVTPPAASDIPADSPTPGPPGPPGSAGPPGPPGPRNVPSPLNLEEVQKKVAEQTFIKDDYLETLSSPKECGLGQRETPPPPPPPTYRTVVSSPGPGSGSGTGTASGASSPARPATPLVPCSCSTPPPPPPRPPSRPKLPPGKPGVGDVSRPFSPPIHSSSPPPIAPL
notes: as for B1
binding result [10]: binds

B3: Leptin: leptin given to leptin deficient ob/ob mice (protein, UniProt P41160 22-167, looked up)
Leptin: VPIQKVQDDTKTLIKTIVTRINDISHTQSVSAKQRVTGLDFIPGLHPILSLSKMDQTLAVYQQVLTSLPSQNVLQIANDLENLRDLLHLLAFSKSCSLPQTSGLQKPESLDGVLEASLYSTEVVALSRLQGSLQDILQQLDVSPEC
FIT gene expression [11]: 1.3 ± 0.3 arbitrary units
